# Test results reported in patent US8759363B2, “Quinazoline-based T cell proliferation inhibitors” (Yissum Research Development Company of the Hebrew …, priority 2010, dated 2014).
# System: not given
# Test: not given
# Conditions: not given
row,melting point,SMILES
1,> 250 °C,"COc1ccc(Nc2nc(-c3cc(OC)c(OC)c(OC)c3)nc3ccccc23)cc1 [Compound 5, N-(4-methoxyphenyl)-2-(3,4,5-trimethoxyphenyl)quinazolin-4-amine]"
2,> 250 °C,"Oc1cc(-c2nc(Nc3ccc(OC(F)(F)F)cc3)c3ccccc3n2)cc(O)c1O [Compound 26, 5-(4-(4-(trifluoromethoxy)phenylamino)quinazolin-2-yl)benzene-1,2,3-triol]"
3,> 250 °C,"COc1ccc(Nc2nc(-c3cc(O)c(O)c(O)c3)nc3ccccc23)cc1 [Compound 24, 5-(4-(4-methoxyphenylamino)quinazolin-2-yl)benzene-1,2,3-triol]"
4,> 250 °C,"Oc1cc(-c2nc(Nc3ccc4nc[nH]c4c3)c3ccccc3n2)cc(O)c1O [Compound 38, 5-(4-(3H-benzo[d]imidazol-5-ylamino)quinazolin-2-yl)benzene-1,2,3-triol]"
5,> 250 °C,"COc1cc(-c2nc(Nc3ccccc3)c3ccccc3n2)cc(OC)c1OC [Compound 1, N-phenyl-2-(3,4,5-trimethoxyphenyl)quinazolin-4-amine]"
6,> 250 °C,"COc1cc(-c2nc(Nc3ccc4cn[nH]c4c3)c3ccccc3n2)cc(OC)c1OC [Compound 15, N-(1H-indazol-6-yl)-2-(3,4,5-trimethoxyphenyl) quinazolin-4-amine]"

# System: PBMC
# Test: PBMC proliferation, BrdU incorporation
# Type: cell-based, human
# Conditions: Homo sapiens; ConA-stimulated PBMC, BrdU uptake; nM ± SD; read-out: IC50 PBMC proliferation inhibition
# Protocol: Blood samples were taken from healthy donors and loaded on a Ficoll density gradient to purify the PBMC population. T cells were purified by human anti-CD3 using an autoMACS instrument (Miltenyi Biotec, Bergisch-Gladbach, Germany), according to the manufacturer's instructions. The identity of T cells was confirmed by flow cytometry, as they stained positive for CD3. Cells were stimulated with ConA (10 μg/ml), ODN2006 (0.5 μg/ml; Enzo Life Sciences), or LPS (50 μg/ml; Sigma-Aldrich, Steinheim, Germany), for 72 h in the presence of the inhibitor, and their proliferation was measured in the BrdU incorporation assay as will be later described.
# (§1) Cells were depleted of fetal calf serum (FCS) for 12 hours. They were then stimulated to proliferate by addition of ConA (10 μg/ml) for PBMC from healthy individuals and for Jurkat cells, FCS (10%) for HEK293 and A375 cells, PDGF (30 ng/ml) for NIH 3T3 cells, and EGF (30 ng/ml) for MDA-MB-231, Cells (1×10^5) were cultured in 96-well plates for 3 days in the presence or absence of inhibitors at the concentrations specified in the text. Each condition was tested in duplicate wells.
# (§2) Proliferation was assessed by BrdU incorporation using a colorimetric ELISA kit (Roche, Germany). Subsequent to labeling with 10 μM BrdU, DNA was denatured and the cells were incubated with anti-BrdU-POD, prior to the addition of colorimetric substrate (TMB). The reaction product was quantified by measuring absorbance at 450 nm in an ELISA plate reader (ELx800 BIO-TEK Instruments Inc.).
# (§3) Since we were not prejudiced towards any specific protein kinase, we used a biological assay for T cell proliferation. We tested our libraries for inhibition of proliferation of PBMC and Jurkat cells (Table 3). Cell proliferation was measured by BrdU uptake. […] PBMC cells were stimulated by a non-specific T cell mitogen, Concanavalin A (ConA). All of the compounds that were tested inhibited proliferation at micromolar or sub-micromolar concentrations.
row,SMILES,IC50
1,"COc1ccc(Nc2nc(-c3cc(OC)c(OC)c(OC)c3)nc3ccccc23)cc1 [Compound 5, N-(4-methoxyphenyl)-2-(3,4,5-trimethoxyphenyl)quinazolin-4-amine]",500 ± 0.14 nM
2,"Oc1cc(-c2nc(Nc3ccc(OC(F)(F)F)cc3)c3ccccc3n2)cc(O)c1O [Compound 26, 5-(4-(4-(trifluoromethoxy)phenylamino)quinazolin-2-yl)benzene-1,2,3-triol]",2780 ± 0.26 nM
3,"COc1ccc(Nc2nc(-c3cc(O)c(O)c(O)c3)nc3ccccc23)cc1 [Compound 24, 5-(4-(4-methoxyphenylamino)quinazolin-2-yl)benzene-1,2,3-triol]",500 ± 0.14 nM
4,"Oc1cc(-c2nc(Nc3ccc4nc[nH]c4c3)c3ccccc3n2)cc(O)c1O [Compound 38, 5-(4-(3H-benzo[d]imidazol-5-ylamino)quinazolin-2-yl)benzene-1,2,3-triol]",4340 ± 0.74 nM
5,"COc1cc(-c2nc(Nc3ccccc3)c3ccccc3n2)cc(OC)c1OC [Compound 1, N-phenyl-2-(3,4,5-trimethoxyphenyl)quinazolin-4-amine]",280 ± 0.04 nM
6,"COc1cc(-c2nc(Nc3ccc4cn[nH]c4c3)c3ccccc3n2)cc(OC)c1OC [Compound 15, N-(1H-indazol-6-yl)-2-(3,4,5-trimethoxyphenyl) quinazolin-4-amine]",450 ± 0.07 nM

# Same assay, conditions: relative to compound 2
row,SMILES,fold increase in the IC50 of PBMC proliferation compared with compound 2
1,"COc1cc(-c2nc(Nc3ccccc3)c3ccccc3n2)cc(OC)c1OC [Compound 1, N-phenyl-2-(3,4,5-trimethoxyphenyl)quinazolin-4-amine]",3 fold

# System: Jurkat cells
# Test: Jurkat cell proliferation, BrdU incorporation
# Type: cell-based, human
# Conditions: Homo sapiens, Jurkat, BrdU uptake; nM ± SD; read-out: IC50 Jurkat cells proliferation inhibition
# Protocol: as §1, §2, §3
row,IC50,SMILES
1,1100 ± 0.14 nM,"COc1ccc(Nc2nc(-c3cc(OC)c(OC)c(OC)c3)nc3ccccc23)cc1 [Compound 5, N-(4-methoxyphenyl)-2-(3,4,5-trimethoxyphenyl)quinazolin-4-amine]"
2,3240 ± 0.31 nM,"Oc1cc(-c2nc(Nc3ccc(OC(F)(F)F)cc3)c3ccccc3n2)cc(O)c1O [Compound 26, 5-(4-(4-(trifluoromethoxy)phenylamino)quinazolin-2-yl)benzene-1,2,3-triol]"
3,550 ± 0.21 nM,"COc1ccc(Nc2nc(-c3cc(O)c(O)c(O)c3)nc3ccccc23)cc1 [Compound 24, 5-(4-(4-methoxyphenylamino)quinazolin-2-yl)benzene-1,2,3-triol]"
4,2570 ± 0.82 nM,"Oc1cc(-c2nc(Nc3ccc4nc[nH]c4c3)c3ccccc3n2)cc(O)c1O [Compound 38, 5-(4-(3H-benzo[d]imidazol-5-ylamino)quinazolin-2-yl)benzene-1,2,3-triol]"
5,380 ± 0.18 nM,"COc1cc(-c2nc(Nc3ccccc3)c3ccccc3n2)cc(OC)c1OC [Compound 1, N-phenyl-2-(3,4,5-trimethoxyphenyl)quinazolin-4-amine]"
6,600 ± 0.14 nM,"COc1cc(-c2nc(Nc3ccc4cn[nH]c4c3)c3ccccc3n2)cc(OC)c1OC [Compound 15, N-(1H-indazol-6-yl)-2-(3,4,5-trimethoxyphenyl) quinazolin-4-amine]"

# Same assay, conditions: relative to compound 2
row,fold increase in the IC50 of Jurkat cell proliferation compared with compound 2,SMILES
1,10 fold,"COc1cc(-c2nc(Nc3ccccc3)c3ccccc3n2)cc(OC)c1OC [Compound 1, N-phenyl-2-(3,4,5-trimethoxyphenyl)quinazolin-4-amine]"
